Reference: ChEMBL document CHEMBL5728675, “5-alkyl pyrrolidine orexin receptor agonists” (2021)

Molecular target: T1, Orexin receptor type 2 (Homo sapiens, UniProt O43614)
T1 sequence (O43614 whole entry): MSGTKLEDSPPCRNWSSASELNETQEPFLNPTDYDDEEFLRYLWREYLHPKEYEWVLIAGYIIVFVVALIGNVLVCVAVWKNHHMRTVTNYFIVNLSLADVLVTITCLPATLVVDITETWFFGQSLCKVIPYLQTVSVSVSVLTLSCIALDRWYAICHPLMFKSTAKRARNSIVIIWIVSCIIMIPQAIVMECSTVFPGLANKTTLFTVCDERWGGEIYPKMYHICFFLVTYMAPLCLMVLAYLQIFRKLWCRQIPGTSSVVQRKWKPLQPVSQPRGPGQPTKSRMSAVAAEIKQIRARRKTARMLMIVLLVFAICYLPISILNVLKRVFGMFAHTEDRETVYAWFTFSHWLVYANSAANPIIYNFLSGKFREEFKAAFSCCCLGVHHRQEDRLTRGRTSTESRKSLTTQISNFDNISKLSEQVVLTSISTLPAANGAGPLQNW
Assay: Receptor Activity Assay: In a typical experiment, the OX1 and OX2 receptor agonist activity is determined in accordance with the following general experimental method.

| SMILES | IC50 [nM] |
| --- | --- |
| CC[C@@H]1C[C@H](NS(C)(=O)=O)[C@H](CO[C@H]2CC[C@@H](c3ccccc3)CC2)N1C(=O)OC | 3 |
| COC[C@@H]1C[C@H](NS(=O)(=O)N(C)C)[C@H](CO[C@H]2CC[C@@H](c3cccc(F)c3)CC2)N1C(=O)OC | 0.7 |
| COCCS(=O)(=O)N[C@H]1C[C@@H](C)N(C(=O)OC)[C@H]1COC1CCC(c2cccc(F)c2)CC1 (stereo partly specified) | 4.6 |
| COC(=O)N1[C@H](C)C[C@H](NS(C)(=O)=O)[C@@H]1CO[C@H]1CC[C@@H](c2ccccc2C(F)(F)F)CC1 | 6.82 |
| COC(=O)N1[C@H](C)C[C@H](NS(=O)(=O)N(C)C)[C@@H]1CO[C@H]1CC[C@@H](c2cc(F)cc(F)c2)CC1 | 0.52 |
| CC(C)OC(=O)N1[C@H](C)C[C@H](NS(=O)(=O)N(C)C)[C@@H]1COC1CCN(c2ncc(F)cn2)CC1 | 1.15 |
| COC(=O)N1[C@H](C)C[C@H](NS(C)(=O)=O)[C@@H]1CO[C@H]1CC[C@@H](C(C)C)CC1 | 17.7 |
| C=C[C@@H]1C[C@H](NS(C)(=O)=O)[C@H](CO[C@H]2CC[C@@H](c3ccccc3)CC2)N1C(=O)OC (relative stereo) | 9.4 |
| C[C@@H]1C[C@H](NS(=O)(=O)N(C)C)[C@H](CO[C@H]2CC[C@@H](c3cc(F)ccc3F)CC2)N1C(=O)OCC(F)F | 0.66 |
| COC(=O)N1[C@H](C)C[C@H](NS(C)(=O)=O)[C@@H]1CO[C@H]1CC[C@@H](c2cc(F)ccc2F)CC1 | 1.67 |
| COC(=O)N1[C@H](C)C[C@H](NS(=O)(=O)N(C)CC#N)[C@@H]1CO[C@H]1CC[C@@H](c2cccc(F)c2)CC1 | 0.6 |
| CC[C@H]1C[C@@H](NS(C)(=O)=O)[C@@H](CO[C@H]2CC[C@@H](c3ccccc3)CC2)N1C(=O)OC | 7330 |
| COC(=O)N1C(C2CC2)C[C@H](NS(C)(=O)=O)C1COC1CCC(c2ccccc2)CC1 (stereo partly specified) | 73.5 |
| COC(=O)N1[C@H](C)C[C@H](NS(C)(=O)=O)[C@@H]1CO[C@H]1CC[C@@H](c2c(F)ccc(F)c2F)CC1 | 1.07 |
| COC(=O)N1[C@H](C)C[C@H](NS(=O)(=O)CC(F)F)[C@@H]1CO[C@H]1CC[C@@H](c2cccc(F)c2)CC1 | 5.2 |
| COC(=O)N1[C@H](C)C[C@H](NS(=O)(=O)N(C)C)[C@@H]1CO[C@H]1CC[C@@H](c2ccc(C#N)c(C)c2)CC1 | 1.1 |
| COC(=O)N1[C@H](C)C[C@H](NS(=O)(=O)N(C)C)[C@@H]1CO[C@H]1CC[C@@H](c2ccccc2F)CC1 | 0.92 |
| CCc1ccccc1[C@H]1CC[C@@H](OC[C@H]2[C@@H](NS(=O)(=O)N(C)C)C[C@@H](C)N2C(=O)OC)CC1 | 2.2 |
| COC(=O)N1[C@H](C)C[C@H](NS(=O)(=O)CF)[C@@H]1COC1CCC(c2cccc(F)c2)CC1 (stereo partly specified) | 1.4 |
| COC(=O)N1[C@H](C)C[C@H](NS(=O)(=O)N(C)C)[C@@H]1CO[C@@H]1CC[C@H](c2ccccc2)CC1F (stereo partly specified) | 10.8 |
| COC(=O)N1[C@H](C)C[C@H](NS(=O)(=O)N(C)C)[C@@H]1CO[C@@H]1CC[C@H](c2cccc(F)c2)CC1F (stereo partly specified) | 3.63 |
| CCc1ccccc1[C@H]1CC[C@H](OC[C@H]2[C@@H](NS(=O)(=O)N(C)C)C[C@@H](C)N2C(=O)OC)CC1 | 111 |
| COC(=O)N1[C@H](C)C[C@H](NS(=O)(=O)N(C)C)[C@@H]1CO[C@H]1CC[C@@H](c2cc(F)ccc2F)CC1 | 0.47 |
| COC(=O)N1[C@H](C)C[C@H](NS(C)(=O)=O)[C@@H]1CO[C@H]1CC[C@@H](c2ccc(F)c(F)c2)CC1 | 25.5 |
| COC(=O)N1[C@H](C)C[C@H](NS(=O)(=O)CF)[C@@H]1CO[C@H]1CC[C@@H](c2ccccc2)CC1 | 0.93 |
| COC(=O)N1[C@H](C)C[C@H](NS(=O)(=O)N(C)C)[C@@H]1CO[C@H]1CC[C@H](c2ccc(C#N)c(C)c2)CC1 | 12.5 |
